From patent US20080255186A1, “Pyrazolo[3,4-B]Pyridine Compound, and Its Use as a Pde4 Inhibitor” (priority 2005, published 2008)

Target: PDE4D (human recombinant) (Homo sapiens, UniProt Q08499)
Assay: PDE4D inhibition, IMAP Fluorescence Polarisation (FP) assay
Format: biochemical
Conditions: mean of n = 3 readings; accurate to about ±0.5 log unit; read-out: PDE4D pIC50 (± about 0.5) (FP assay), Mean pIC50 value (converted)
Excerpt: Human recombinant PDE4D (HSPDE4D3A) is disclosed in P. A. Baecker et al., “Isolation of a cDNA encoding a human rolipram-sensitive cyclic AMP phoshodiesterase (PDE IVD)”, Gene, 1994, 138, 253-256.
The ability of compounds to inhibit catalytic activity at PDE4B (human recombinant) or PDE4D (human recombinant) can optionally be determined by IMAP Fluorescence Polarisation (FP) assay (IMAP Explorer kit, available from Molecular Devices Corporation, Sunnydale, Calif., USA; Molecular Devices code: R8062) in 384-well format.
The IMAP FP assay is able to measure PDE activity in an homogenous, non-radioactive assay format. […] Binding of Fl-AMP product to the beads (coated with the immobilised trivalent cations) slows the rotation of the bound Fl-AMP and leads to an increase in the fluorescence polarisation ratio of parallel to perpendicular light. […]
Test compounds (small volume, e.g. ca. 0.5 to 1 microlitres (ul), suitably ca. 0.5 ul, of solution in DMSO) are preincubated at ambient temperature (room temperature, e.g. 19-23° C.) in black 384-well microtitre plates (supplier: NUNC, code 262260) with PDE enzyme in 10 mM Tris-HCl buffer pH 7.2, 1 mM MgCl2, 0.1% (w/v) bovine serum albumin, and 0.05% NaN3 for 10-30 minutes. […] The Fluorescence Polarisation (FP) ratio of parallel to perpendicular light is measured using an Analyst™ plate reader (from Molecular Devices Corporation). […]

PDE4D (human recombinant), sequence (Q08499 1-673 isoform Q08499-2): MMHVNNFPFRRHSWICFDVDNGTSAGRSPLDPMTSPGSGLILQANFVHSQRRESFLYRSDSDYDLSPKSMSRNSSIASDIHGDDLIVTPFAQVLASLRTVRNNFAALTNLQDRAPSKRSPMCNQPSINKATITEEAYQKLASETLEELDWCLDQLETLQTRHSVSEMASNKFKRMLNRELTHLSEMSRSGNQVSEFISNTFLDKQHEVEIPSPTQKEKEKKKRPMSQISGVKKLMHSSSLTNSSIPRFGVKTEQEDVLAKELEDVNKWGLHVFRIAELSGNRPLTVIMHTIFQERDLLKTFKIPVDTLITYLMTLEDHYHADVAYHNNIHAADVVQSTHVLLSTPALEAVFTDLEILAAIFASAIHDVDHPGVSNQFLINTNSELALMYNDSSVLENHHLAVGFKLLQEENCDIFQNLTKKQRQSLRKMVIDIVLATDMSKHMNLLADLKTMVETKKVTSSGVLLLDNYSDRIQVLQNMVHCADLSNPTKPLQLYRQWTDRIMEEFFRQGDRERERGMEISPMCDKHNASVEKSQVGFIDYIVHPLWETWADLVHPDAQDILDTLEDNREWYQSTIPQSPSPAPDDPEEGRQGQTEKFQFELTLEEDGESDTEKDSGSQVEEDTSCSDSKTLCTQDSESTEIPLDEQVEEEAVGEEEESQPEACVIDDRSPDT

CCc1nc2c(cnn2CC)c(NC2CCOCC2)c1CNC(=O)c1cc(C)no1 [Example 1, N-{[1,6-diethyl-4-(tetrahydro-2H-pyran-4-ylamino)-1H-pyrazolo[3,4-b]pyridin-5-yl]methyl}-3-methyl-5-isoxazolecarboxamide]
IC50: ~0.1 nM
